Tests used:
Assay type in all cases: cell-based
human TLR7 = human TLR7 (Homo sapiens (Human), UniProt Q9NYK1); experiment: TLR7 inhibition reporter assay (HEK-Blue, SEAP); details: HEK-Blue cells overexpressing human TLR7, gardiquimod 7.5 μM stimulation
Method: (§1) TLR7/8/9 Inhibition Reporter Assays
(§2) HEK-Blue™-cells (Invivogen) overexpressing human TLR7, TLR8 or TLR9 receptors were used for screening inhibitors of these receptors using an inducible SEAP (secreted embryonic alkaline phosphatase) reporter gene under the control of the IFN-β minimal promoter fused to five NF-κc Band AP-1-binding sites. Briefly, cells are seeded into Greiner 384 well plates (15000 cells per well for TLR7, 20,000 for TLR8 and 25,000 for TLR9) and then treated with test compounds in DMSO to yield a final dose response concentration range of 0.05 nM-50 μM. After a 30 minute compound pre-treatment at room temperature, the cells are then stimulated with a TLR7 ligand (gardiquimod at a final concentration of 7.5 μM), TLR8 ligand (R848 at a final concentration of 15.9 μM) or TLR9 ligand (ODN2006 at final concentration of 5 nM) to activate NF-κB and AP-1 which induce the production of SEAP. After a 22 hour incubation at 37° C., 5% CO2, SEAP levels are determined with the addition of HEK-Bue™ Detection reagent (Invivogen), a cell culture medium that allows for detection of SEAP, according to manufacturer's specifications. The percent inhibition is determined as the % reduction in the HEK-Blue signal present in wells treated with agonist plus DMSO alone compared to wells treated with a known inhibitor.

human TLR8 = human TLR8 (Homo sapiens (Human), UniProt Q9NR97); experiment: TLR8 inhibition reporter assay (HEK-Blue, SEAP); details: HEK-Blue cells overexpressing human TLR8, R848 15.9 μM stimulation
Method: as §1, §2

human TLR9 = human TLR9 (Homo sapiens (Human), UniProt Q9NR96); experiment: TLR9 inhibition reporter assay (HEK-Blue, SEAP); details: HEK-Blue cells overexpressing human TLR9, ODN2006 5 nM stimulation
Method: as §1, §2

human TLR7, sequence (Q9NYK1 27-1049): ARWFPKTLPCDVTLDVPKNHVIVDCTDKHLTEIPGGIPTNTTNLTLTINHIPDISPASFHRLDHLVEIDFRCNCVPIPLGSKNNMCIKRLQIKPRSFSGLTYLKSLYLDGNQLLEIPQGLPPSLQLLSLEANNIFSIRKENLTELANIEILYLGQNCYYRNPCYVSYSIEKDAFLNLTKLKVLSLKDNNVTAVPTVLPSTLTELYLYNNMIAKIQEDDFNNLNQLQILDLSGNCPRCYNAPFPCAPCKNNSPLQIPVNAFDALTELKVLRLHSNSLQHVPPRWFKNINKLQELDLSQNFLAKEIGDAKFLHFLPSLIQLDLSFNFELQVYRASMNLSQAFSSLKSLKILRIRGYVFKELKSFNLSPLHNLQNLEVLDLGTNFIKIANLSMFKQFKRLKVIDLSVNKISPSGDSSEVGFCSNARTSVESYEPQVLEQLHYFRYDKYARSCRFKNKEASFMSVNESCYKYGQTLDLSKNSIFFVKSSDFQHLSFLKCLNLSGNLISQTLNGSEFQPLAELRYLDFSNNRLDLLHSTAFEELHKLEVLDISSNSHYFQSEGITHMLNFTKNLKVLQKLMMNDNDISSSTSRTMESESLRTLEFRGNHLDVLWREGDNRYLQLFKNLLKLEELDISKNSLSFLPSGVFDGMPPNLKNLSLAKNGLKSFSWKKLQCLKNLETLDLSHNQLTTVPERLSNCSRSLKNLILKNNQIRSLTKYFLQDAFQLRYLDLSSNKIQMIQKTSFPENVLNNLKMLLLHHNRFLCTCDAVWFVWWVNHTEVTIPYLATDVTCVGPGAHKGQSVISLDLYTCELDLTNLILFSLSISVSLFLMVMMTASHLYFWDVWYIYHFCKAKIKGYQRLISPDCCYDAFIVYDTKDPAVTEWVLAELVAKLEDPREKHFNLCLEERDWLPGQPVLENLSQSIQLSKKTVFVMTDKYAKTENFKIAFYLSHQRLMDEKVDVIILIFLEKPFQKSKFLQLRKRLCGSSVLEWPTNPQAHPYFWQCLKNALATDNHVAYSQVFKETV
human TLR9, sequence (Q9NR96 26-1032): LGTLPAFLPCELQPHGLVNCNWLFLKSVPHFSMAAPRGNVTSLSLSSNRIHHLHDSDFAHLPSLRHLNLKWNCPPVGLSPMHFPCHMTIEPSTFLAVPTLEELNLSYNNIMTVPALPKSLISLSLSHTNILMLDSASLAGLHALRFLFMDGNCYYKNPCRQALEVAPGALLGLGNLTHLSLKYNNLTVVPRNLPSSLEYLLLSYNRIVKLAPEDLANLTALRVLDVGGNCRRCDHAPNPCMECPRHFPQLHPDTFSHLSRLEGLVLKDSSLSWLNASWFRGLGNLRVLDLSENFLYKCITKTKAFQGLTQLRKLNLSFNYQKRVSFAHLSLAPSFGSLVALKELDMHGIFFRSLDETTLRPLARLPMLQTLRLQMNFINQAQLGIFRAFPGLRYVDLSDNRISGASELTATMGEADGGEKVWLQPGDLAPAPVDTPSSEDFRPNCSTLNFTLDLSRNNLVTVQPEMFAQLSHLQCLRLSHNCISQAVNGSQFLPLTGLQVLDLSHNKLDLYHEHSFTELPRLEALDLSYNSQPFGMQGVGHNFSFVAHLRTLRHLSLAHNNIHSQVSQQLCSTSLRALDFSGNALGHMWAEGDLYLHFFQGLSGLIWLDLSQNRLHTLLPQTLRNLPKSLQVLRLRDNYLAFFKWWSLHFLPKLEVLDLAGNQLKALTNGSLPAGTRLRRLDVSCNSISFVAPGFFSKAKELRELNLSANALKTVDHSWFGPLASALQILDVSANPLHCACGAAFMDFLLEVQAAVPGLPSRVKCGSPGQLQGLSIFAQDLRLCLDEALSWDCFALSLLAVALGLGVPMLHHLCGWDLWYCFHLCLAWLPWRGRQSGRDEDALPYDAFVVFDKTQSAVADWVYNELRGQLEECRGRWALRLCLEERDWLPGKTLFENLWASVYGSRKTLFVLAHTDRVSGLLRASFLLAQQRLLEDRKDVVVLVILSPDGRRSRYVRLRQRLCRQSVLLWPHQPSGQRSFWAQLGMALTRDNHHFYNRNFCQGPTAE
human TLR8, sequence (Q9NR97 27-1041): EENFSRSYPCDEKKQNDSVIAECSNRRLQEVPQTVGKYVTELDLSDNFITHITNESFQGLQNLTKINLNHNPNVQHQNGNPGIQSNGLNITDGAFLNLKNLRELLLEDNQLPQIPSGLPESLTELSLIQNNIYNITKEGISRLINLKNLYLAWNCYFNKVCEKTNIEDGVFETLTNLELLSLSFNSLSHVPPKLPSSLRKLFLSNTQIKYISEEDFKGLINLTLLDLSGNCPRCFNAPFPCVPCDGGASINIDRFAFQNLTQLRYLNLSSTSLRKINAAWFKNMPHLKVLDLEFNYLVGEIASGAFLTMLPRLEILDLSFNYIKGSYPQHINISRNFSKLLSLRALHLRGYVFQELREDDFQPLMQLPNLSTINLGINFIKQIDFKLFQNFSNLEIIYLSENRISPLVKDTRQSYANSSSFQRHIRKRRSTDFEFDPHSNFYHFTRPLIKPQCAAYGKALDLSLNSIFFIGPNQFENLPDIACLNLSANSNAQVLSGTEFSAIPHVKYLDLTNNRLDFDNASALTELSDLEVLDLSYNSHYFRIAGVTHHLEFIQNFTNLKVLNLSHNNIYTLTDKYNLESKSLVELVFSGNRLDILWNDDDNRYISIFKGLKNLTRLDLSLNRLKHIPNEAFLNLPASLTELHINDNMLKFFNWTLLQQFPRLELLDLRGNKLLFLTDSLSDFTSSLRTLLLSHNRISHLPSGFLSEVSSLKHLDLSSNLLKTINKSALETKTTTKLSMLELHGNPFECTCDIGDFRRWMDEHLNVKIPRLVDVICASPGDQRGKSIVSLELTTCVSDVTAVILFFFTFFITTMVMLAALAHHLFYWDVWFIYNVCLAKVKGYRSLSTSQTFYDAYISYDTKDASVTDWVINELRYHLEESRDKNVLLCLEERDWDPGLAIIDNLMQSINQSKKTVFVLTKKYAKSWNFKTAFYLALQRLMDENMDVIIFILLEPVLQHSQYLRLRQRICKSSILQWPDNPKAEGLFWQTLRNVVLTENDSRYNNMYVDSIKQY

Compound | IC50 (human TLR7) [nM] | IC50 (human TLR8) [nM] | IC50 (human TLR9) [nM]
Cc1cc(-c2[nH]c3ccc(-c4nnc(CCN5CCCCC5)o4)cc3c2C(C)C)ccn1 [Example 260, 2-(3-isopropyl-2-(2-methylpyridin-4-yl)-1H-indol-5-yl)-5-(2-(piperidin-1-yl)ethyl)-1,3,4-oxadiazole] | 133 | 2.2 | 1230
CNC(=O)CN1CCC(c2nnc(-c3ccc4[nH]c(-c5ccc(OC)c(OC)c5)c(C(C)C)c4c3)o2)CC1 [Example 23, 2-(4-(5-(2-(3,4-dimethoxyphenyl)-3-isopropyl-1H-indol-5-yl)-1,3,4-oxadiazol-2-yl)piperidin-1-yl)-N-methylacetamide] | 207 | 43 | 6100
Cc1cc(-c2[nH]c3ccc(-c4nc(C(=O)NCCCN5CCCC5)co4)cc3c2C(C)C)cc(C)n1 [Example 284, 2-(2-(2,6-dimethylpyridin-4-yl)-3-isopropyl-1H-indol-5-yl)-N-(3-(pyrrolidin-1-yl)propyl)oxazole-4-carboxamide] | 12 | 9.6 | 563
Cc1cc(-c2[nH]c3ccc(-c4nnc([C@@H]5Cc6ccccc6CN5)o4)cc3c2C(C)C)ccn1 [Example 81, (S)-2-(3-isopropyl-2-(2-methylpyridin-4-yl)-1H-indol-5-yl)-5-(1,2,3,4-tetrahydroisoquinolin-3-yl)-1,3,4-oxadiazole] | 774 | 73 | > 50000
Cc1cc(-c2[nH]c3ccc(-c4nnc(NC(=O)CN(C)C)o4)cc3c2C(C)C)ccn1 [Example 190, 2-(dimethylamino)-N-(5-(3-isopropyl-2-(2-methylpyridin-4-yl)-1H-indol-5-yl)-1,3,4-oxadiazol-2-yl)acetamide] | 258 | 9.1 | 48500
Cc1cc(-c2[nH]c3ccc(-c4ccc(Cl)nc4)cc3c2C(C)C)ccn1 [Example 235, 5-(6-chloropyridin-3-yl)-3-isopropyl-2-(2-methylpyridin-4-yl)-1H-indole] | 667 | 301 | > 50000
COc1ccc(-c2[nH]c3ccc(-c4nnc(C5CCCN(C)C5)o4)cc3c2C(C)C)cc1OC (stereo not drawn) [Example 46, 2-(2-(3,4-dimethoxyphenyl)-3-isopropyl-1H-indol-5-yl)-5-(1-methylpiperidin-3-yl)-1,3,4-oxadiazole] | 39 | 6.2 | 1080
Cc1cc(-c2[nH]c3ccc(-c4nnc(C(=O)NCCN(C)C)o4)cc3c2C(C)C)cc(C)n1 [Example 223, N-(2-(dimethylamino)ethyl)-5-(2-(2,6-dimethylpyridin-4-yl)-3-isopropyl-1H-indol-5-yl)-1,3,4-oxadiazole-2-carboxamide] | 6.6 | 1 | 138
CCc1c(-c2ccc(OC)c(OC)c2)[nH]c2ccc(-c3noc(C4CCN(C(C)C)CC4)n3)cc12 [Example 445, 3-(2-(3,4-dimethoxyphenyl)-3-ethyl-1H-indol-5-yl)-5-(1-isopropylpiperidin-4-yl)-1,2,4-oxadiazole] | 338 | 37 | 1850
Cc1cc(-c2[nH]c3ccc(-c4nnc(Cc5cccnc5)o4)cc3c2C(C)C)ccn1 [Example 74, 2-(3-isopropyl-2-(2-methylpyridin-4-yl)-1H-indol-5-yl)-5-(pyridin-3-ylmethyl)-1,3,4-oxadiazole] | 132 | 21 | 15800
COc1ccc(-c2[nH]c3ccc(-c4ccc(NCCCN(C)C)cc4)cc3c2C(C)C)cc1OC [Example 400, N1-(4-(2-(3,4-dimethoxyphenyl)-3-isopropyl-1H-indol-5-yl)phenyl)-N3,N3-dimethylpropane-1,3-diamine] | 165 | 35 | 2660
COc1ccc(-c2[nH]c3ccc(-c4ccc(C5=CCN(C6CCN(CC(C)C)CC6)CC5)cc4)cc3c2C)cc1OC [Example 375, 2-(3,4-dimethoxyphenyl)-5-(4-(1-(1-isobutylpiperidin-4-yl)-1,2,3,6-tetrahydropyridin-4-yl)phenyl)-3-methyl-1H-indole] | > 50000 | 12400 | 291
Cc1cc(-c2[nH]c3ccc(-c4ccnc(N5CCNCC5)c4)cc3c2C(C)C)cc(C)n1 [Example 320, 2-(2,6-dimethylpyridin-4-yl)-3-isopropyl-5-(2-(piperazin-1-yl)pyridin-4-yl)-1H-indole] | 71 | 86 | 2970
Cc1cc(-c2[nH]c3ccc(-c4nnc(C5CCCN(C(C)C)C5)[nH]4)cc3c2C(C)C)cc(C)n1 (stereo not drawn) [Example 340, 2-(2,6-dimethylpyridin-4-yl)-3-isopropyl-5-(5-(1-isopropylpiperidin-3-yl)-4H-1,2,4-triazol-3-yl)-1H-indole] | 4 | 3.6 | 262
CC(C)c1c(-c2ccnc3[nH]ncc23)[nH]c2ccc(-c3nnc(C4CCCN(C)C4)o3)cc12 (stereo not drawn) [Example 162, 2-(3-isopropyl-2-(1H-pyrazolo[3,4-b]pyridin-4-yl)-1H-indol-5-yl)-5-(1-methylpiperidin-3-yl)-1,3,4-oxadiazole] | 52 | 1.7 | 1380
COc1ccc(-c2[nH]c3ccc(-c4ccc(OCCN5CCCC5)cc4)cc3c2C(C)C)cc1OC [Example 412, 2-(3,4-dimethoxyphenyl)-3-isopropyl-5-(4-(2-(pyrrolidin-1-yl)ethoxy)phenyl)-1H-indole] | 34 | 26 | > 50000
CC(C)c1c(-c2ccnc3[nH]ncc23)[nH]c2ccc(-c3nnc(C4CN5CCC4CC5)o3)cc12 (stereo not drawn) [Example 220, 2-(3-isopropyl-2-(1H-pyrazolo[3,4-b]pyridin-4-yl)-1H-indol-5-yl)-5-(quinuclidin-3-yl)-1,3,4-oxadiazole] | 76 | 12 | 238
Cc1cn2cc(-c3[nH]c4ccc(-c5ccc(N6CCNCC6)nc5)cc4c3C(C)C)ccc2n1 [Example 334, 6-(3-isopropyl-5-(6-(piperazin-1-yl)pyridin-3-yl)-1H-indol-2-yl)-2-methylimidazo[1,2-a]pyridine] | 45 | 214 | 672

Continued by falling IC50 (human TLR7), values first:

IC50 (human TLR7) [nM] | IC50 (human TLR8) [nM] | IC50 (human TLR9) [nM] | Compound
2510 | 484 | > 50000 | COc1ccc(-c2[nH]c3ccc(-c4nnc(C5CCN(C(=O)OC(C)(C)C)CC5)o4)cc3c2C(C)C)cc1OC [Example 19, tert-butyl 4-(5-(2-(3,4-dimethoxyphenyl)-3-isopropyl-1H-indol-5-yl)-1,3,4-oxadiazol-2-yl)piperidine-1-carboxylate]
239 | 37 | 1360 | CCc1c(-c2ccnc(C)c2)[nH]c2ccc(-c3noc(CCC4CCN(C(C)C)CC4)n3)cc12 [Example 449, 3-(3-ethyl-2-(2-methylpyridin-4-yl)-1H-indol-5-yl)-5-(2-(1-isopropylpiperidin-4-yl)ethyl)-1,2,4-oxadiazole]
181 | 222 | 13100 | COc1ccc(-c2[nH]c3ccc(-c4nnc(C(=O)N(C)CCc5ccccn5)o4)cc3c2C(C)C)cc1OC [Example 94, 5-(2-(3,4-dimethoxyphenyl)-3-isopropyl-1H-indol-5-yl)-N-methyl-N-(2-(pyridin-2-yl)ethyl)-1,3,4-oxadiazole-2-carboxamide]
93 | 17 | 47400 | CNC(=O)CN1CCc2cc(-c3ccc4[nH]c(-c5ccnc(C)c5)c(C(C)C)c4c3)sc2C1 [Example 315, 2-(2-(3-isopropyl-2-(2-methylpyridin-4-yl)-1H-indol-5-yl)-4,7-dihydrothieno[2,3-c]pyridin-6(5H)-yl)-N-methylacetamide]
67 | 23 | 494 | Cc1cc(-c2[nH]c3ccc(-c4nc(C(=O)NCCC5CCCN5)co4)cc3c2C(C)C)cc(C)n1 (stereo not drawn) [Example 291, 2-(2-(2,6-dimethylpyridin-4-yl)-3-isopropyl-1H-indol-5-yl)-N-(2-(pyrrolidin-2-yl)ethyl)oxazole-4-carboxamide]
24 | 9 | 380 | Cc1cc(-c2[nH]c3ccc(-c4ccnc(C5CCN(C(C)C)CC5)c4)cc3c2C(C)C)ccn1 [Example 272, 3-isopropyl-5-(2-(1-isopropylpiperidin-4-yl)pyridin-4-yl)-2-(2-methylpyridin-4-yl)-1H-indole]
19 | 1.2 | 592 | Cc1cc(-c2[nH]c3ccc(-c4nnc([C@@H]5CCCNC5)o4)cc3c2C(C)C)ccn1 [Example 80, (R)-2-(3-isopropyl-2-(2-methylpyridin-4-yl)-1H-indol-5-yl)-5-(piperidin-3-yl)-1,3,4-oxadiazole]
18 | 31 | 46500 | Cc1cc(-c2[nH]c3ccc(-c4ccc(N5CCC5)nc4)cc3c2C(C)C)cc(C)n1 [Example 338, 5-(6-(azetidin-1-yl)pyridin-3-yl)-2-(2,6-dimethylpyridin-4-yl)-3-isopropyl-1H-indole]

From patent US11420958B2, “Aryl and heteroaryl substituted indole compounds” (BRISTOL-MYERS SQUIBB COMPANY, priority 2017, dated 2022)
